This assay relates to H5N1 virus (strain A/Vietnam/1194/04). The assay is classed as in vivo, Balb/c mice.

Like-named read-outs stand apart in the source and are kept apart here.

From patent US20160068843A1 (priority 2012, published 2016) come the findings set out here.

Take `NC(=O)c1ncn([C@@H]2O[C@H](CO)[C@@H](O)[C@H]2O)n1` [Ribavirin]: the survival rate (mouse, in vivo) worked out at 0%.
For the compound `CC(=O)N[C@H]1[C@H]([C@H](O)[C@H](O)CO)OC(C(=O)O)=C[C@@H]1N=C(N)N` [Zanamivir], under “comparison with existing flu therapeutics, started 24 hours post challenge, siRNA intranasal 100 ug per dose twice a day for two days”, the survival rate worked out at 40%.
